ChEMBL document CHEMBL1201862, “PubChem BioAssay data set” (2004)
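Following 48 hours of exposure in 96-well plates, responses at five concentrations were used to interpolate endpoints linearly. GI50 marks 50% less growth.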 Calls of active or inactive are those of the source. Cut-off read from the data, not from the text of the source: active = GI50 up to about 1.1 µM and inactive = higher.

How the values were obtained:
Assay in all cases: NCI anticancer screen, dose series, 48 h
[1] = test system: CAKI-1
[2] = test system: HOP-62
[3] = test system: LOX IMVI
[4] = test system: NCI-H460
[5] = test system: OVCAR-5
[6] = test system: OVCAR-8
[7] = test system: SF-539
[8] = test system: SK-MEL-28
[9] = test system: SK-OV-3
[10] = test system: SN12C
[11] = test system: SNB-19
[12] = test system: SW-620
[13] = test system: TK-10
[14] = test system: UACC-257
[15] = test system: SF-295
[16] = test system: SK-MEL-2

Measured: GI50

CCCCCCN(N)C(=O)CC#N
inactive: [1] > 100 µM | [2] > 100 µM | [3] 72.1 µM | [4] > 100 µM | [5] 52.2 µM | [6] > 100 µM | [7] > 100 µM | [8] > 100 µM | [9] > 100 µM | [10] > 100 µM | [11] > 10 µM | [12] > 100 µM | [13] > 100 µM | [14] > 100 µM

C[N+](C)(C)CC(=O)N/N=C(/Cc1nc2ccc([N+](=O)[O-])cc2nc1O)C(=O)Nc1cc(C(F)(F)F)ccc1Cl
inactive: [1] > 100 µM | [2] > 100 µM | [4] > 100 µM | [5] > 100 µM | [6] > 100 µM | [15] > 100 µM | [7] > 100 µM | [8] > 100 µM | [16] > 100 µM | [9] > 100 µM | [10] > 100 µM | [11] > 100 µM | [12] > 100 µM | [13] > 100 µM | [14] > 100 µM

Cc1cc(O)c2c3c1C(=O)Oc1c(CO)c(O)c(C(=O)O)c(c1O3)C=NN=Cc1c3c(c(CO)c(O)c1C(=O)O)OC(=O)c1c(C)cc(O)c(c1O3)C=NN=C2
inactive: [1] > 100 µM | [2] > 100 µM | [3] > 100 µM | [4] > 100 µM | [5] > 100 µM | [6] > 100 µM | [15] > 100 µM | [7] > 100 µM | [8] > 100 µM | [9] > 100 µM | [10] > 100 µM | [11] > 100 µM | [12] > 100 µM | [13] > 100 µM | [14] > 100 µM

CO[C@H](c1ccccc1)[C@H](C)N(C)c1ccc2ccccc2c1C1=NC(C)(C)CO1
inactive: [1] > 10 µM | [2] 21 µM | [4] 16 µM | [6] 13.8 µM | [15] 15.5 µM | [7] 16.2 µM | [8] 18.3 µM | [16] 14.3 µM | [9] 19.2 µM | [10] 18 µM | [11] 24.8 µM | [12] 15.9 µM | [13] 22.9 µM | [14] 15.7 µM

N#Cc1c(-c2ccc(Cl)c(Cl)c2)c(-c2ccc(Cl)c(Cl)c2)nn(CC(=O)O)c1=O
inactive: [1] 38.5 µM | [2] > 100 µM | [3] 41.3 µM | [4] 36.9 µM | [5] > 100 µM | [6] 57 µM | [15] 48.6 µM | [8] 75.2 µM | [16] > 100 µM | [9] > 100 µM | [10] 51.3 µM | [12] 53.6 µM | [13] > 100 µM | [14] 66.2 µM

O/N=C1/C(=C/c2ccc(Cl)c(Cl)c2)CCCC1C(NO)c1ccc(Cl)c(Cl)c1 (stereo not given)
inactive: [1] 18.8 µM | [2] 20.1 µM | [4] 21.1 µM | [6] 18.7 µM | [7] 18.1 µM | [8] 17.9 µM | [16] 17.4 µM | [9] 20.4 µM | [10] 17.8 µM | [11] 17.6 µM | [12] 17.9 µM | [13] 19.8 µM | [14] 18.7 µM

O=C1CCC2(CC1)SCCCS2
inactive: [1] > 100 µM | [2] > 100 µM | [3] > 100 µM | [4] > 100 µM | [5] > 100 µM | [6] > 100 µM | [15] > 100 µM | [8] > 100 µM | [16] > 100 µM | [9] > 100 µM | [10] > 100 µM | [11] > 100 µM | [12] > 100 µM | [13] > 100 µM | [14] > 100 µM

O=C1OC(=O)C([Se]c2ccccc2)=C1[Se]c1ccccc1
inactive: [1] > 100 µM | [2] > 100 µM | [3] > 100 µM | [4] > 100 µM | [5] > 100 µM | [6] > 100 µM | [15] > 100 µM | [7] > 100 µM | [8] > 100 µM | [9] > 100 µM | [10] > 100 µM | [11] > 100 µM | [12] > 100 µM | [13] > 100 µM | [14] > 100 µM

C/C(=N/N)c1ccc2[nH]c3c(C)cc([N+](=O)[O-])c(C)c3c2c1
inactive: [1] > 10 µM | [2] 8.07 µM | [3] 4.99 µM | [4] 5.87 µM | [5] > 10 µM | [6] 5.3 µM | [15] 17.1 µM | [7] 4.76 µM | [8] 6.07 µM | [16] 11.3 µM | [10] 3.95 µM | [11] 14.4 µM | [12] 7.53 µM | [13] 12.2 µM | [14] 18.6 µM

Cc1cc(Cl)ccc1NC(=O)/C(=N\NC(C)(C)C)C(C#N)c1nc(-c2ccc([N+](=O)[O-])cc2)cs1 (stereo not given)
inactive: [1] > 100 µM | [2] > 100 µM | [3] > 100 µM | [4] > 100 µM | [5] > 100 µM | [6] > 100 µM | [15] > 100 µM | [7] > 100 µM | [8] > 100 µM | [16] > 100 µM | [9] > 100 µM | [10] > 100 µM | [11] > 100 µM | [12] > 100 µM | [13] > 100 µM | [14] > 100 µM

CC1=C(C(=O)Nc2cc(=O)n(C)c(=O)n2C)C(c2cccc([N+](=O)[O-])c2)C(C(=O)Nc2cc(=O)n(C)c(=O)n2C)=C(C)N1
inactive: [1] > 100 µM | [2] > 100 µM | [3] > 100 µM | [4] 62.7 µM | [5] > 100 µM | [6] > 100 µM | [15] > 100 µM | [7] 26.7 µM | [8] > 100 µM | [16] > 100 µM | [9] > 100 µM | [10] > 100 µM | [11] > 100 µM | [12] > 100 µM | [13] > 100 µM | [14] > 100 µM

CC1(O)C(C)(O)C2(C)O[Te]3(OC12C)OC1(C)C(C)(O)C(C)(O)C1(C)O3 (stereo not given)
inactive: [2] > 100 µM | [3] 4.41 µM | [4] 3.32 µM | [5] 15.3 µM | [6] 16.1 µM | [15] 15.3 µM | [7] 29.1 µM | [8] 16.2 µM | [16] 44.6 µM | [9] > 10 µM | [10] 23.1 µM | [11] 28.1 µM | [12] > 10 µM | [13] 23.1 µM | [14] > 100 µM

CCOC(=O)c1cnc2cc3cccccc3n2c1=O
inactive: [1] > 100 µM | [2] > 100 µM | [3] > 100 µM | [4] > 100 µM | [5] > 100 µM | [6] > 100 µM | [15] > 100 µM | [7] > 100 µM | [8] > 100 µM | [16] > 100 µM | [10] > 100 µM | [11] > 100 µM | [12] > 100 µM | [13] > 100 µM | [14] > 100 µM

Cn1ccnc1CCc1c(Cl)cccc1Cl
inactive: [1] > 100 µM | [2] > 100 µM | [3] > 100 µM | [4] > 100 µM | [5] > 100 µM | [6] > 100 µM | [15] > 100 µM | [7] > 100 µM | [8] > 100 µM | [16] > 100 µM | [9] > 100 µM | [10] > 100 µM | [12] > 100 µM | [13] > 100 µM | [14] > 100 µM

O=C1N[C@H](Cc2c[nH]cn2)C(=O)N2CCC[C@@H]12
inactive: [1] > 100 µM | [2] > 100 µM | [3] > 100 µM | [4] > 100 µM | [5] > 100 µM | [6] > 100 µM | [15] > 100 µM | [8] > 100 µM | [16] > 100 µM | [9] > 100 µM | [10] > 100 µM | [11] > 100 µM | [12] > 100 µM | [13] > 100 µM | [14] > 100 µM

CCOC(=O)c1c[nH]c2c(ccc3nn(C)nc32)c1=O
inactive: [1] > 100 µM | [2] > 100 µM | [3] 10 µM | [4] 96.4 µM | [5] > 100 µM | [6] > 100 µM | [15] > 100 µM | [8] > 100 µM | [16] 19.4 µM | [9] > 100 µM | [10] > 100 µM | [11] > 100 µM | [12] 20.1 µM | [13] > 100 µM | [14] > 100 µM

Cc1c(Cl)c2ccccc2n1S(=O)(=O)c1ccccc1
inactive: [1] 58.7 µM | [2] 65.5 µM | [4] 44.6 µM | [5] 33.5 µM | [6] 52.6 µM | [15] 46.5 µM | [7] 54.1 µM | [8] > 100 µM | [16] 28.8 µM | [11] 78.7 µM | [12] 38.5 µM | [13] 65.9 µM | [14] 53.1 µM

CCCC(C)C[C@@H](C)CC(C)/C=C(\C)c1oc(=O)c(C)c(O)c1C.CC[C@@H](C)C[C@@H](C)C[C@@H](C)/C=C(\C)c1oc(=O)c(C)c(O)c1C (stereo not given in full)
inactive: [1] 13.4 µM | [2] 18.7 µM | [3] 17.1 µM | [4] 9.29 µM | [5] 6.19 µM | [6] 20.3 µM | [15] 12.8 µM | [7] 15.4 µM | [8] 14.8 µM | [16] 9.48 µM | [10] 15.3 µM | [11] 14.2 µM | [12] 17.7 µM | [13] 19.5 µM | [14] 14.7 µM
